# From patent US20220267394A1, “COMPOUNDS FOR INDUCING TISSUE FORMATION AND USES THEREOF” (HISTIDE AG, priority 2015, published 2022)
# Where no end group is shown, it is not given here.
# Columns and labels:
# hMSCs [1] = test: Cartilage regeneration: chondrocyte differentiation of hMSCs on 14 kPa hydrogels (Sox9, Aggrecan); format: cell-based, human; details: 14 kPa hydrogels covalently modified with peptides, 96 hours
# Procedure: Total RNA was extracted by using the RNeasy total RNA kit (Qiagen®) according to the manufacturer's instructions. Purified total RNA was used as a template in order to make cDNA by a reverse transcription reaction (Gibco Brl®) with random primers (Invitrogen®). The cDNA was then used as a template for a real-time PCR amplification in the presence of SYBR green reagents (Bio-Rad®) by using a thermocycler (iCycler, Biorad®). Data were analyzed with the iCycler IQ™® software and compared by the ΔΔCt method. […]
# Total RNA was extracted by using the RNeasy Mini Kit (Qiagen) and […] RNA was used for cDNA synthesis with AMV kit (Invitrogen®) according to the manufacturer' instructions. Semi-quantitative reverse transcriptase-polymerase chain reaction (RT-PCR) was performed with Taq DNA Polymerase (Invitrogen®) in a thermocycler (Bio-Rad®). […] The PCR products were analyzed on 2% agarose gels. For the Aggrecan gene, the PCR bands were densitometrically quantified by using the BioCapt software (Vilber). […]
# It was then verified that these hMSCs cultured on the covalently modified hydrogels were differentiated into chondrocyte cells by analyzing the expression of the chondrocyte gene biomarker: Aggrecan. […] For that a semi-quantitative RT-PCR was performed as described in the Methods section for the Aggrecan gene and a Quantitative Real Time PCR for Sox9.
# hMSCs [2] = test: Loss of stemness: STRO-1 expression by immunostaining; format: cell-based, human; details: Table 8, SEQ ID NO: 1 to 49 tested in combination with a bioactive carrier (titanium, ceramics, collagen, etc.)
# How it was run: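 hMSCs cultured on plastic with GFR-binding peptides in solution (some sequences tested with a bioactive carrier), then fixed, permeabilized and immunostained for Stro-1. Stro-1-positive contact number and area quantified by thresholded image analysis, minimum 30 cells per condition.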
# Hair Follicle Stem Cells = test: Loss of quiescence and activation of hair follicle stem cells on 73 kPa hydrogels (Sox2, BMP-6 release); format: cell-based, mouse; details: 73 kPa hydrogels covalently modified with peptides
# From the text: The following starting materials and reagents were used: • Apatite ceramics (also called apatite or ceramic in the present invention) were synthetized as described in Mater Res. 2004; 7(4): 625-630. • Titanium was obtained from Goodfellow®. • Hydrogel (poly(acrylamide-co-acrylic acid) gel) was synthetized as described in Langmuir 2011; 27(22):13635-42. • PEEK was obtained from Goodfellow®. • PET (Poly(ethylene terephthalate) was obtained from Goodfellow®. • Type-I collagen sponge was obtained from Sigma®. • Hexane was obtained from Sigma®. • 3-succinimidyl-3-maleimidopropionate (SMP) was obtained from Sigma®. • DMF was obtained from Sigma®. • PBS 1× was obtained from Gibco®. • 3-(ethoxydimethylsilyl)propylamine was obtained from Sigma®. • Ammonium persulfate was obtained from Biorad®. • N,N,N′,N′-tetramethylethylenediamine was obtained from Aldrich®. • Acrylamid was obtained from Merck®. • Acrylic acid was obtained from Merck®. • N,N-methylene-bis-acrylamide was obtained from Merck®. • NaOH was obtained from Aldrich®. • N,N,N′,N′-tetramethylethylenediamine was obtained from Aldrich®. • Dimethylaminopropyl-3-ethylcarbodiimide hydrochloride was obtained from Aldrich®. • N-hydroxysuccinimide was obtained from Aldrich®. • 2-(N-morpholino)-ethane sulfonic acid was obtained from Aldrich®. • MilliQ water: is water characterised in terms of resistivity (typically 18.2 MΩ·cm at 25° C.). • Low glucose Dulbecco's Modified Eagle Medium (DMEM) was obtained from Invitrogen® • Minimum Essential Medium Eagle without ascorbic acid (αMEM) was obtained from Invitrogen®. • All of the cell culture experiments were carried out without any serum in the medium for the first 8 hours of culture. • Osteoblast progenitors or precursor osteoblasts: MC3T3-E1 cells were obtained from ATCC®. These cells were cultured in Alpha-MEM medium supplemented with 10% fetal calf serum (FCS) and 1% penicillin/streptomycin. All cells were used at a low passage number (passage 7), were subconfluently cultured and were seeded at 10^4 cells/cm^2 for the purpose of the experiments. • Human bone marrow Mesenchymal Stem Cells (hMSCs) were obtained from Lonza®. These cells were cultured in Alpha-MEM supplemented with 10% (v/v) FBS and 1% penicillin/streptomycin and incubated in a humidified atmosphere containing 5% (v/v) CO2 at 37° C. All cells were used at a low passage number (passage 2 to 4), were subconfluently cultured and were seeded at 10^4 cells/cm^2 for the purpose of the experiments. • Human adipose Mesenchymal Stem Cells (haMSCs) were obtained from Lonza®. These cells were cultured in Alpha-MEM supplemented with 10% (v/v) FBS and 1% penicillin/streptomycin and incubated in a humidified atmosphere containing 5% (v/v) CO2 at 37° C. […]
# [3] = tested on: Human Hematopoeitic Stem Cells; test: Differentiation of human hematopoietic stem cells: CD34+ expression by immunostaining; format: cell-based; details: peptides in solution in the cell culture media, 400 ng/mL, 48 hours
# From the text: The following starting materials and reagents were used: • Apatite ceramics (also called apatite or ceramic in the present invention) were synthetized as described in Mater Res. 2004; 7(4): 625-630. • Titanium was obtained from Goodfellow®. • Hydrogel (poly(acrylamide-co-acrylic acid) gel) was synthetized as described in Langmuir 2011; 27(22):13635-42. • PEEK was obtained from Goodfellow®. • PET (Poly(ethylene terephthalate) was obtained from Goodfellow®. • Type-I collagen sponge was obtained from Sigma®. • Hexane was obtained from Sigma®. • 3-succinimidyl-3-maleimidopropionate (SMP) was obtained from Sigma®. • DMF was obtained from Sigma®. • PBS 1× was obtained from Gibco®. • 3-(ethoxydimethylsilyl)propylamine was obtained from Sigma®. • Ammonium persulfate was obtained from Biorad®. • N,N,N′,N′-tetramethylethylenediamine was obtained from Aldrich®. • Acrylamid was obtained from Merck®. • Acrylic acid was obtained from Merck®. • N,N-methylene-bis-acrylamide was obtained from Merck®. • NaOH was obtained from Aldrich®. • N,N,N′,N′-tetramethylethylenediamine was obtained from Aldrich®. • Dimethylaminopropyl-3-ethylcarbodiimide hydrochloride was obtained from Aldrich®. • N-hydroxysuccinimide was obtained from Aldrich®. • 2-(N-morpholino)-ethane sulfonic acid was obtained from Aldrich®. • MilliQ water: is water characterised in terms of resistivity (typically 18.2 MΩ·cm at 25° C.). • Low glucose Dulbecco's Modified Eagle Medium (DMEM) was obtained from Invitrogen® • Minimum Essential Medium Eagle without ascorbic acid (αMEM) was obtained from Invitrogen®. • All of the cell culture experiments were carried out without any serum in the medium for the first 8 hours of culture. • Osteoblast progenitors or precursor osteoblasts: MC3T3-E1 cells were obtained from ATCC®. These cells were cultured in Alpha-MEM medium supplemented with 10% fetal calf serum (FCS) and 1% penicillin/streptomycin. All cells were used at a low passage number (passage 7), were subconfluently cultured and were seeded at 10^4 cells/cm^2 for the purpose of the experiments. • Human bone marrow Mesenchymal Stem Cells (hMSCs) were obtained from Lonza®. These cells were cultured in Alpha-MEM supplemented with 10% (v/v) FBS and 1% penicillin/streptomycin and incubated in a humidified atmosphere containing 5% (v/v) CO2 at 37° C. All cells were used at a low passage number (passage 2 to 4), were subconfluently cultured and were seeded at 10^4 cells/cm^2 for the purpose of the experiments. • Human adipose Mesenchymal Stem Cells (haMSCs) were obtained from Lonza®. These cells were cultured in Alpha-MEM supplemented with 10% (v/v) FBS and 1% penicillin/streptomycin and incubated in a humidified atmosphere containing 5% (v/v) CO2 at 37° C. All cells were used at a low passage number (passage 3 to 4), were subconfluently cultured and were seeded at 10^4 cells/cm^2 for the purpose of the experiments. • Mouse Hair Follicle Stem Cells were isolated and cultured as described in Methods Mol Biol. 2010; 585:401-20. • Neuron cells are Neuronal Schwann Cells obtained from ATCC®. These cells were cultured in Dulbecco's Modified Eagle's Medium supplemented with 10% (v/v) FBS and 1% penicillin/streptomycin and incubated in a humidified atmosphere containing 5% (v/v) CO2 at 37° C. All cells were used at a low passage number (passage 6-8), were subconfluently cultured and were seeded at 10^4 cells/cm^2 for the purpose of the experiments. • Human umbilical-vein endothelial cells (HUVECs) were purchased from Promocell®. HUVECs were isolated and grown on gelatin coated culture flasks in a complete HUVEC culture medium (IMDM (Invitrogen, France) supplemented with 20% (v/v) fetal bovine serum (FBS) (PAA, France) and 0.4% (v/v) EC growth supplement/heparin kit (Promocell, France)). Cells were subcultured by using trypsin/EDTA (Invitrogen, France) and maintained in a humidified atmosphere containing 5% CO2 at 37° C. These cells were used at a passage number 3 to 5 for the purpose of the experiments. […]
substance,measurement,setting,value
37 (CASAAPSSVPQALEPLPIVYYVGRTPKVEQLSNMIVRSSK; not fully specified; ends and bridges not checked) [compound 37],Sox9 protein expression,hMSCs [1],expression of the Sox9 protein was observed
same,STRO-1 expression (%),hMSCs [2],21%
42 (CGIPEPSSVPEKTSSLSLLFFDENKNVVLKVYPNM; not fully specified; ends and bridges not checked) [compound 42],BMP-6 release in the cell culture medium,Hair Follicle Stem Cells,decrease
same,Sox2 protein expression,Hair Follicle Stem Cells,increase
same,STRO-1 expression (%),hMSCs [2],28%
2147 (IPKASSAPVGQRPVQMRKIDKGVVTYKKATVSSVEESGSL; GFR-binding peptide) [compound 2147],CD34+ Expression (%),[3],27%
2148 (KASSVPQEERPVQMRKIGGGGGGGKKATVMIVRSSKSS; GFR-binding peptide) [compound 2148],CD34+ Expression (%),[3],32%
2149 (VSQAARPVQTRKIDDMGVPTKKATVAAVKS; GFR-binding peptide) [compound 2149],CD34+ Expression (%),[3],28%
2150 (PTSSAPTDLRSVKMAKVEIVRKKPIFKEVQVDMVVKASGSH; GFR-binding peptide) [compound 2150],CD34+ Expression (%),[3],26%
2151 (PTSSVPTGGRSVKMAKVDKGVVTYKEVQVMVVAESKSS; GFR-binding peptide) [compound 2151],CD34+ Expression (%),[3],24%
2152 (IPKASSVPQSSSNITMQIMGGGGGGGIGEMSSSVKSSGSL; GFR-binding peptide) [compound 2152],CD34+ Expression (%),[3],30%
2153 (KASSSRVKMSNITVQIMRIKPHQGQHIGEMSVVEEHASGSH; GFR-binding peptide) [compound 2153],CD34+ Expression (%),[3],22%
2154 (VPTAAEPLTMLYYEIVRKKPIFEQLSNMVEHS; GFR-binding peptide) [compound 2154],CD34+ Expression (%),[3],21%
2155 (EPSSSRVRLEPLTTLYYGGGGGGGEQLSNVVEEHSKSS; GFR-binding peptide) [compound 2155],CD34+ Expression (%),[3],29%
